Laboratory results taken from PubChem BioAssay (NCI).
Where “and” joins values, the source holds several entries; their conditions need not be identical. Equal entries are not always repeated.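 All cell lines were grown in 96-well plates and treated with compound for 48 hours. GI50 = concentration required for 50% inhibition of growth. Definition used: TGI = concentration required for complete inhibition of growth.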

Columns and labels:
Experiment in all cases: NCI tumour cell line growth inhibition, 48 h
K-562 leukemia = tested on: K-562 leukemia
UACC-257 melanoma = tested on: UACC-257 melanoma
786-0 renal = tested on: 786-0 renal
A549 NSCLC = tested on: A549 NSCLC
HCT-15 colon = tested on: HCT-15 colon
SF-268 CNS = tested on: SF-268 CNS
LOX IMVI melanoma = tested on: LOX IMVI melanoma
NCI-H522 lung = tested on: NCI-H522 lung
ACHN renal = tested on: ACHN renal
SK-MEL-2 melanoma = tested on: SK-MEL-2 melanoma

SMILES	TGI (K-562 leukemia) [µM]	TGI (UACC-257 melanoma) [µM]	TGI (786-0 renal)	TGI (A549 NSCLC)	TGI (HCT-15 colon)	TGI (SF-268 CNS)	TGI (LOX IMVI melanoma) [µM]	TGI (NCI-H522 lung) [µM]	TGI (ACHN renal)	TGI (SK-MEL-2 melanoma)	GI50 (K-562 leukemia)	GI50 (786-0 renal)	GI50 (A549 NSCLC)	GI50 (HCT-15 colon)	GI50 (SF-268 CNS)	GI50 (SK-MEL-2 melanoma)	GI50 (LOX IMVI melanoma)	GI50 (NCI-H522 lung)	GI50 (ACHN renal)	GI50 (UACC-257 melanoma) [µM]
CC1(C)CCC[C@@]2(C)C1CC[C@H]1CC(O)C3(C)CCC12C3 (stereo partly specified)	> 100	32.1	31.5 µM	37.4 µM	32.9 µM	40.9 µM	28.9	30.3	31.8 µM	–	–	–	–	–	–	–	–	–	–	–
CCCC(C)C[C@@H](C)CC(C)/C=C(\C)c1oc(=O)c(C)c(O)c1C (stereo partly specified) (tested in a mixture with another compound)	–	29.2	29.5 µM	34 µM	–	33.5 µM	31.6	31.1	17.9 µM	22.8 µM	–	–	–	–	–	–	–	–	–	–
COc1cc2cc(C(=O)Nc3cc(N)c4ccccc4c3CCCl)[nH]c2c(OC)c1OC	2.5	–	1.09 µM	> 50 µM	–	6.87 µM	1.53	0.271	0.13 µM	0.174 µM	0.0466 µM	< 0.005 µM	0.116 µM	0.0382 µM	0.017 µM	0.0895 µM	0.0301 µM	0.0153 µM	0.0184 µM	–
Nc1cc(-c2cccc(OC(F)(F)F)c2)nc2ccc(N3CCCC3)cc12	–	–	12.3 µM and > 100 µM and > 47.8 µM	18.6 µM and > 100 µM	11.5 µM and > 100 µM	22 µM and > 100 µM	–	0.986	26 µM and > 100 µM	12.8 µM and > 100 µM	0.0298 µM and 0.0175 µM and 0.0176 µM	0.0656 µM and 0.078 µM and 0.0573 µM	0.137 µM and 0.0852 µM and 0.0836 µM	0.0338 µM and 0.0349 µM and 0.0312 µM	0.0819 µM and 0.0837 µM and 0.0784 µM	0.4 µM and 0.0887 µM and 0.787 µM	0.0528 µM and 0.0485 µM and 0.046 µM	0.0394 µM and 0.0351 µM and 0.0297 µM	0.0903 µM and 0.101 µM and 0.107 µM	–
CCCCc1ccc(-n2c3nc(=O)n(C)c(=O)c-3nc3ccccc32)cc1	33.6	14.5	32.1 µM	22 µM	18.3 µM	34.1 µM	–	20.2	23.1 µM	24 µM	–	–	–	–	–	–	–	–	–	–
CN(C)CC/C(=N\Nc1ccccc1)c1ccccc1	7.54	–	51.2 µM	> 100 µM	27.6 µM	> 100 µM	–	–	–	27.2 µM	–	–	–	–	–	–	–	–	–	–
COc1ccc2c(c1)OC1=C(C(=O)OC1)C2c1cc(OC)c(OC)c(OC)c1 (stereo unspecified)	> 100	–	> 100 µM	> 100 µM	> 100 µM	> 100 µM	> 100	2.02	> 100 µM	> 100 µM	0.199 µM	0.632 µM	0.61 µM	0.499 µM	1.91 µM	0.518 µM	0.608 µM	0.273 µM	1.27 µM	–
O=C1c2ccccc2C2(O)NC(=S)N(c3ccccc3)C12O (stereo unspecified)	> 100	> 100	> 100 µM	> 100 µM	> 100 µM	> 100 µM	> 100	> 100	–	> 100 µM	–	–	–	–	–	–	–	–	–	–
COc1cc2c(Oc3ccc4[nH]c(C)cc4c3F)ccnc2cc1OCC1(N)CC1	12.3	3.63	3.46 µM	–	13.5 µM	12.9 µM	3.2	3.46	12.5 µM	3.79 µM	0.416 µM	1.02 µM	–	0.854 µM	1.39 µM	1.68 µM	1.26 µM	1.27 µM	2.05 µM	1.67
Nc1nc(=S)[nH]c(C(=O)Nc2ccc(Cl)c(Cl)c2)c1-c1ccc(Cl)cc1	> 100	> 100	> 100 µM	> 100 µM	> 100 µM	> 100 µM	> 100	> 100	> 100 µM	–	–	–	–	–	–	–	–	–	–	–
COc1ccc2cc3[n+](cc2c1OC)CCc1cc(O)c(O)cc1-3	> 100	> 100	> 100 µM	> 100 µM	> 100 µM	> 100 µM	> 100	> 100	–	–	–	–	–	–	–	–	–	–	–	–
O=c1[nH]ccc2nc(N3CCC(O)CC3)nc(Nc3cccc(C(F)(F)F)c3)c12	> 100	13	> 100 µM	> 100 µM	31.6 µM	35.3 µM	16.6	10.1	84.7 µM	–	3.14 µM	2.06 µM	3.83 µM	0.543 µM	3.06 µM	–	1.42 µM	2.36 µM	0.702 µM	4.24
Cc1ccc(NC(=O)CCC/C(CC(=O)c2ccc(Br)cc2)=N/NC(=O)CC#N)cc1	–	> 100	> 100 µM	> 100 µM	–	> 100 µM	> 100	–	> 100 µM	> 100 µM	–	–	–	–	–	–	–	–	–	–
O=CN1N=C(c2ccc(Cl)cc2)CC1c1cccc(Nc2ccnc3cc(Cl)ccc23)c1 (stereo unspecified)	10.2	20.9	14.5 µM	94.2 µM	> 100 µM	> 100 µM	3.42	11.9	> 100 µM	–	0.388 µM	2.96 µM	2.03 µM	1.36 µM	2.73 µM	–	1.29 µM	1.12 µM	2.64 µM	1.47
O=C(Nc1ccc(F)cc1)C(=O)C(C1OC(=O)c2ccccc21)[N+](=O)[O-] (stereo unspecified)	> 100	> 100	> 100 µM	> 100 µM	> 100 µM	> 100 µM	> 100	–	> 100 µM	> 100 µM	–	–	–	–	–	–	–	–	–	–
Cc1nc2cc(N)c(F)cc2[nH]1	> 100	> 100	> 100 µM	> 100 µM	–	> 100 µM	> 100	> 100	> 100 µM	> 100 µM	–	–	–	–	–	–	–	–	–	–
NC(=N\N=C/c1cccc([N+](=O)[O-])c1)/C(N)=N\N=C/c1cccc([N+](=O)[O-])c1	> 100	> 100	> 100 µM	–	> 100 µM	> 100 µM	> 100	> 100	> 100 µM	> 100 µM	> 100 µM	> 100 µM	–	> 100 µM	> 100 µM	> 100 µM	> 100 µM	> 100 µM	> 100 µM	> 100
